Values belong to the molecule of their own block, whether it stands above or below them.
Legend:
[1] = molecular target: Mitogen-activated protein kinase kinase kinase 11 (Homo sapiens) (UniProt Q16584); assay: Selectivity interaction (Ambit KINOMEscan and KiNATiv profiling in Jurkat cells) EUB0000090b MAP3K11; type: cell-based; conditions: at 1 µM
[2] = molecular target: Serine/threonine-protein kinase PAK 2 (Homo sapiens) (UniProt Q13177); assay: Selectivity interaction (Ambit KINOMEscan and KiNATiv profiling in Jurkat cells) EUB0000090b PAK2; type: cell-based; conditions: at 1 µM
Sequence of Serine/threonine-protein kinase PAK 2 (Homo sapiens) (Q13177 whole entry): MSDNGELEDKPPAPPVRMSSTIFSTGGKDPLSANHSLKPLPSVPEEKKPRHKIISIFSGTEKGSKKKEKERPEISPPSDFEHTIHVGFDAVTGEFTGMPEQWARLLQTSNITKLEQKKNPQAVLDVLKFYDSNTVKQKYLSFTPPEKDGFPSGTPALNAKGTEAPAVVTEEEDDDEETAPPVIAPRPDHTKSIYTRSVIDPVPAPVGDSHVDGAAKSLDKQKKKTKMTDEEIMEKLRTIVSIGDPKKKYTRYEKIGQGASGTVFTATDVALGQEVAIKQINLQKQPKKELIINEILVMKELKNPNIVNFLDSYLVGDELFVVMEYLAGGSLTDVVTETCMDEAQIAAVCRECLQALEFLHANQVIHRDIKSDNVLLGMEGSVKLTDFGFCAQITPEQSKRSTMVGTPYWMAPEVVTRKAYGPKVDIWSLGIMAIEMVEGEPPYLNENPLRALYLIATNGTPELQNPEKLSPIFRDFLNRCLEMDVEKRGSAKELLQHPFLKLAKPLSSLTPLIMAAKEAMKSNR

[3] = molecular target: T1, Serine/threonine-protein kinase D2 (Homo sapiens) (UniProt Q9BZL6); assay: Selectivity interaction (ActivX KiNativ screen (kinase selectivity in THP-1 cell lysates)) EUB0000639a PRKD2; type: subcellular; conditions: lysate
T1 sequence (whole entry): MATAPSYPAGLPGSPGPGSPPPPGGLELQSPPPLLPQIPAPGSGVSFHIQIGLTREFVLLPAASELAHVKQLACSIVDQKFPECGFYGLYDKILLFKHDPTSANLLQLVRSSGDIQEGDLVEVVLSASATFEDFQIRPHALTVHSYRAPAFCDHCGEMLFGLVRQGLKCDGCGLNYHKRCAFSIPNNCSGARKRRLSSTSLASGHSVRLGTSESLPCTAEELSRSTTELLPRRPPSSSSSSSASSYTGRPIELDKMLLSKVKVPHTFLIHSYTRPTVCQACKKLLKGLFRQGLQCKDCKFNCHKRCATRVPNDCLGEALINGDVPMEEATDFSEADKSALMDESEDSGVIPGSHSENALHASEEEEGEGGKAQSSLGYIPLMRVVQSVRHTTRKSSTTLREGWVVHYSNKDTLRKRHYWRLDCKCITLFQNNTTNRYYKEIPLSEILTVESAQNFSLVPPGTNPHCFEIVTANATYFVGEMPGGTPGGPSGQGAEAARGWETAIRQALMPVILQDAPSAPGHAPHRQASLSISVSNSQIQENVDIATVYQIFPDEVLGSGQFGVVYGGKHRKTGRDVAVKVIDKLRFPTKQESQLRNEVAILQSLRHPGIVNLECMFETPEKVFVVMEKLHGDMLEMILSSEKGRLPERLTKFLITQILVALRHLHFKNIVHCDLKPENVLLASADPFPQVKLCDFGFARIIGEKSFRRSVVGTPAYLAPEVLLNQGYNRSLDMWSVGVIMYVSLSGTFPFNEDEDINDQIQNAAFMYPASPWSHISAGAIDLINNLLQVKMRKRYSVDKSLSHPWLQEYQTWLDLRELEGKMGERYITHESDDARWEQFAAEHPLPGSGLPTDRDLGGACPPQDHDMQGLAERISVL

[4] = molecular target: Dual specificity mitogen-activated protein kinase kinase 1 (Homo sapiens, UniProt Q02750); assay: Selectivity interaction (Enzymatic assay) EUB0001199aCl MAP2K1
Sequence of Dual specificity mitogen-activated protein kinase kinase 1 (Q02750 whole entry): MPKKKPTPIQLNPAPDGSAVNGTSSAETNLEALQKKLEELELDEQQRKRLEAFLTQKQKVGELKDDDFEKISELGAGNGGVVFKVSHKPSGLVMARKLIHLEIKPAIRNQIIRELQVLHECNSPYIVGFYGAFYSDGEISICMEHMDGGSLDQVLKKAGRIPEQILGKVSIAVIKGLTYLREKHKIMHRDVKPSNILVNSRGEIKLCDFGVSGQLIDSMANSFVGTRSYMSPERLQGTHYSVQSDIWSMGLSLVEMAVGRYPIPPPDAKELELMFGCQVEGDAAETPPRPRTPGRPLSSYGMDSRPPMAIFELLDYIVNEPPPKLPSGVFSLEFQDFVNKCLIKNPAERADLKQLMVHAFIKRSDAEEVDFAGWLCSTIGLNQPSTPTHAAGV

[5] = molecular target: Calcium/calmodulin-dependent protein kinase type II subunit gamma (Homo sapiens) (UniProt Q13555); conditions: at 10 µM
[6] = molecular target: MAP kinase-interacting serine/threonine-protein kinase 2 (Homo sapiens, UniProt Q9HBH9); assay: Selectivity interaction (KinomeScan (DiscoverX)) EUB0000595a MKNK2; conditions: at 10 µM
Sequence of MAP kinase-interacting serine/threonine-protein kinase 2 (Q9HBH9 whole entry, looked up): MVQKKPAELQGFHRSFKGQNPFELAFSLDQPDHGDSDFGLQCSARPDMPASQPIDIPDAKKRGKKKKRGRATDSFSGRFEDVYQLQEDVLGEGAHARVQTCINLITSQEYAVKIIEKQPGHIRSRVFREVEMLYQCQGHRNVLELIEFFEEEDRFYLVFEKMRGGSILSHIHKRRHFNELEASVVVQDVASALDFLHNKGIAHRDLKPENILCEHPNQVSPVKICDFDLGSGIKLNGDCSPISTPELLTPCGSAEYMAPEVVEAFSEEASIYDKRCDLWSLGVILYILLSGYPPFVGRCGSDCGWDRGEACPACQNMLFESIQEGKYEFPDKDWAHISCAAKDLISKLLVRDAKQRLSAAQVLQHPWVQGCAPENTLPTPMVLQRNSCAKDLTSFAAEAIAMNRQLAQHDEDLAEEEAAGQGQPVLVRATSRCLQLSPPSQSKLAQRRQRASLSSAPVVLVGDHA

[7] = molecular target: T2, Aurora kinase C (Homo sapiens) (UniProt Q9UQB9); assay: Selectivity interaction (KinomeScan (DiscoverX)) EUB0001079a AURKC; conditions: at 1 µM
T2 sequence (whole entry): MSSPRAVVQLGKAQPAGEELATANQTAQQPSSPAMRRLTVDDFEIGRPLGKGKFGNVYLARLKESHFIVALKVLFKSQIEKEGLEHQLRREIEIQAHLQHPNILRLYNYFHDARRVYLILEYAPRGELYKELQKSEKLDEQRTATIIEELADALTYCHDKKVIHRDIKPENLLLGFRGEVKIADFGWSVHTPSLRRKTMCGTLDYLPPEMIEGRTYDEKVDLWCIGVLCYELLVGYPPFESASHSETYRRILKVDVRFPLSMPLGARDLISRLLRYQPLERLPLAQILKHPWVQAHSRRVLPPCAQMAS

[8] = molecular target: Serine/threonine-protein kinase MRCK beta (Homo sapiens) (UniProt Q9Y5S2); assay: Selectivity interaction (ProQinase) EUB0000171b CDC42BPB
Sequence of Serine/threonine-protein kinase MRCK beta (Homo sapiens) (Q9Y5S2 whole entry): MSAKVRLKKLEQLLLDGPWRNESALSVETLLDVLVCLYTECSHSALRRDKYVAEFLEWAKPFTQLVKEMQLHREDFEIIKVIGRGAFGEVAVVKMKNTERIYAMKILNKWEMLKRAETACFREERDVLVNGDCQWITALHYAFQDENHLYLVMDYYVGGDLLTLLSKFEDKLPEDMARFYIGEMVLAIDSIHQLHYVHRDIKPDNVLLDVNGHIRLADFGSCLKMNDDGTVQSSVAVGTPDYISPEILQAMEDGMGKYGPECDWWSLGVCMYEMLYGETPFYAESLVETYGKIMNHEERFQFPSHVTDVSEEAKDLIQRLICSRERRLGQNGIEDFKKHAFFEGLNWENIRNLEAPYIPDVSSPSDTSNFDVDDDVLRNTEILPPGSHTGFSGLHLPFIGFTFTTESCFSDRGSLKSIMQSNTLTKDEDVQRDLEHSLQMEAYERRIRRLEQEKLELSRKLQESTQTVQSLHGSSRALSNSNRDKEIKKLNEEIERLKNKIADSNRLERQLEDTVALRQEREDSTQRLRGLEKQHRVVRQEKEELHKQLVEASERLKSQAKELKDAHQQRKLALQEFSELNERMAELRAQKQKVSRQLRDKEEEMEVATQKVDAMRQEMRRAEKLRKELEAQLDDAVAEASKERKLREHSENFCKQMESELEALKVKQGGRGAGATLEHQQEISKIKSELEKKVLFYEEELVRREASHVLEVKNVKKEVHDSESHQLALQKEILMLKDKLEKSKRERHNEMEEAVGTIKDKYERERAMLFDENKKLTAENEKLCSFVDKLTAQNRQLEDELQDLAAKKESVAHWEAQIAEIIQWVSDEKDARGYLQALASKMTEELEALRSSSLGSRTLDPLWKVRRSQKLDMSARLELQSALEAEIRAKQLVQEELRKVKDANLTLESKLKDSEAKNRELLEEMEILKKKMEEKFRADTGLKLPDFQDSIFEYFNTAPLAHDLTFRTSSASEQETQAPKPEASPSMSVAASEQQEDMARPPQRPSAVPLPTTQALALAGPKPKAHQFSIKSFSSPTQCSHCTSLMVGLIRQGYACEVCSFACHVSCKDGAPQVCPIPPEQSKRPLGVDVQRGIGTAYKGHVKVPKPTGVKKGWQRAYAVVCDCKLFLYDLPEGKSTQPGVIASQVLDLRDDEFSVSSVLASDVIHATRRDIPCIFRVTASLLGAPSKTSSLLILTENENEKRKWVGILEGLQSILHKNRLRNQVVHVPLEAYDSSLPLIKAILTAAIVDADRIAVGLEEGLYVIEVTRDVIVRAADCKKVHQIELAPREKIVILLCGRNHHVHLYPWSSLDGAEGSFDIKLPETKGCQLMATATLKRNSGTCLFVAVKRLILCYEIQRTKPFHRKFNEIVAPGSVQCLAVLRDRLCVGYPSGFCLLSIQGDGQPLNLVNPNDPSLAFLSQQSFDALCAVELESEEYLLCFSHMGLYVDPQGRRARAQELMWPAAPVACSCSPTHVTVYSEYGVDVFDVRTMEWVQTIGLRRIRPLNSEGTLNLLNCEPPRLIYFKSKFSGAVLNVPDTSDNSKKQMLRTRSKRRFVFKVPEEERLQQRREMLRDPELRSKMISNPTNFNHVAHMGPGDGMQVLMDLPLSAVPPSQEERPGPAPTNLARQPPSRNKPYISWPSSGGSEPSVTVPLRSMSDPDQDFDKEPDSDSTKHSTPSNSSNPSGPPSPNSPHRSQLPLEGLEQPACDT

[9] = molecular target: T3, Testis-specific serine/threonine-protein kinase 1 (Homo sapiens) (UniProt Q9BXA7); assay: Selectivity interaction (KinomeScan (DiscoverX)) EUB0001619a TSSK1B; conditions: at 1 µM
T3 sequence (whole entry): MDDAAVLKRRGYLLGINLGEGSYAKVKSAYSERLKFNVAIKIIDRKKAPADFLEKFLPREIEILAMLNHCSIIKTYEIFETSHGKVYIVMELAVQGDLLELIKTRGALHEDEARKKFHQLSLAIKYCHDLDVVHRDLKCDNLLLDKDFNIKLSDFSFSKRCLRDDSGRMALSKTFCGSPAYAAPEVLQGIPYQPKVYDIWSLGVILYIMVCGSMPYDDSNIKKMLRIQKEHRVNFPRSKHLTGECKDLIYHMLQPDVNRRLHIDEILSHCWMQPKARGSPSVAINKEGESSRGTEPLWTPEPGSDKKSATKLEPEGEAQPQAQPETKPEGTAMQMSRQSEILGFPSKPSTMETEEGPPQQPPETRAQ

[10] = molecular target: Calcium/calmodulin-dependent protein kinase type II subunit beta (Homo sapiens) (UniProt Q13554); assay: Selectivity interaction (KinomeScan (DiscoverX)) EUB0000607a CAMK2B; conditions: at 10 µM
Sequence of Calcium/calmodulin-dependent protein kinase type II subunit beta (Homo sapiens) (Q13554 whole entry): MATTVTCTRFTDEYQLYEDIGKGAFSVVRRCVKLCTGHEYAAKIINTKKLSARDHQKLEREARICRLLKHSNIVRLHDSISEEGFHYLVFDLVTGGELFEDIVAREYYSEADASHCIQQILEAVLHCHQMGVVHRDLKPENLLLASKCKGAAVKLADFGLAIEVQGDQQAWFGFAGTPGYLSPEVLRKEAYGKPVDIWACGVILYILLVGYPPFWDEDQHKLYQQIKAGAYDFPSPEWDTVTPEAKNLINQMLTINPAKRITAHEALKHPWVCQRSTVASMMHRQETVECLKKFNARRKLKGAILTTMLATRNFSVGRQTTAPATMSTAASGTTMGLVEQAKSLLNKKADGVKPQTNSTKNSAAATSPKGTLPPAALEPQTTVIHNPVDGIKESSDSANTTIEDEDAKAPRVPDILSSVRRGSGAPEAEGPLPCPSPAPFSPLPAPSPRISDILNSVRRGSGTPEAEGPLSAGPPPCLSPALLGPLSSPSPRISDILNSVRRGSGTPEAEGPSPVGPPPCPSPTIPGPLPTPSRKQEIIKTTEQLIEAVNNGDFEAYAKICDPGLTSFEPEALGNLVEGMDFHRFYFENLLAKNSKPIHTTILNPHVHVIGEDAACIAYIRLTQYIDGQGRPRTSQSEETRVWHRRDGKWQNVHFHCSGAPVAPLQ

Sequence of Mitogen-activated protein kinase kinase kinase 11 (Homo sapiens) (Q16584 whole entry, looked up): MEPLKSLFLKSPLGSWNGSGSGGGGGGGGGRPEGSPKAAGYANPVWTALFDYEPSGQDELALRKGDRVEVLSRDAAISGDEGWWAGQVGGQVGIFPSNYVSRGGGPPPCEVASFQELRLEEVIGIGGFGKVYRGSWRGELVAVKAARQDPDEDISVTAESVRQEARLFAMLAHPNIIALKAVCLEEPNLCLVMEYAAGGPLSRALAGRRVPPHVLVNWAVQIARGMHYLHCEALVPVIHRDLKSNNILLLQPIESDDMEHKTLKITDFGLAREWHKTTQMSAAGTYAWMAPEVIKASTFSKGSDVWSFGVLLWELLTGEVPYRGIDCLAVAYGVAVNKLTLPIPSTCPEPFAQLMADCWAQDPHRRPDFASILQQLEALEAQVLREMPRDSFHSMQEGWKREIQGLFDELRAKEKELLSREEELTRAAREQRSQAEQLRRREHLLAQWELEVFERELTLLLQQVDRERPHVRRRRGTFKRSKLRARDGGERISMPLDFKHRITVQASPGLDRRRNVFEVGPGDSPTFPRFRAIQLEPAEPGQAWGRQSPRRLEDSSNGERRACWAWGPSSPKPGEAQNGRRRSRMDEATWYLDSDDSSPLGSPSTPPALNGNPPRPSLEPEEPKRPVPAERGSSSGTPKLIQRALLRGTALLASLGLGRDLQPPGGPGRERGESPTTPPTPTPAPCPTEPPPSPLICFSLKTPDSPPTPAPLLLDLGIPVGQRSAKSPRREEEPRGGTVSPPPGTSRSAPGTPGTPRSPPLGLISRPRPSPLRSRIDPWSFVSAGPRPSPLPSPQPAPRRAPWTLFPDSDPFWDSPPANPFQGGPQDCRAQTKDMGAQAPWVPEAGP

SMILES: CN(C)C/C=C/C(=O)Nc1ccc(C(=O)N2CCCC(Nc3ncc(Cl)c(-c4c[nH]c5ccccc45)n3)C2)cc1 (stereo not given)
% of control [1]: 84%
% of control [2]: 84%

% of inhibition ([3]; at 0.01 µM): 1.1%
% of inhibition ([3]; at 0.04 µM): 12.3%
% of inhibition ([3]; at 0.2 µM): 6.8%
% of inhibition ([3]; at 1 µM): 11.9%
% of inhibition ([3]; at 5 µM): 5.6%
SMILES: CC[C@@H]1[C@H](F)C(=O)N[C@@H]1COc1nccc2cc(C(N)=O)c(OC)cc12 [ZIMLOVISERTIB]

IC50 [4]: 10.2 µM
SMILES: CN1Cc2nccc(-c3cn(C)nc3-c3ccc(F)cc3)c2C1=O

% of control [5]: 100%
SMILES: CCN(CC)CCCCNc1ncc2cc(-c3cc(OC)cc(OC)c3)c(NC(=O)NC(C)(C)C)nc2n1

SMILES: COCC(=O)NC/C=C/c1ccc2ncnc(Nc3ccc(Oc4ccc(C)nc4)c(C)c3)c2c1 [CP-724714]
% of control [6]: 1.4%

SMILES: Nc1cnc(N2CCc3cc(S(=O)(=O)Nc4c(F)cc(Cl)cc4F)cc(N4CCCC4=O)c32)nc1 [TP-020n]
% of control [7]: 100%

% of control ([8]; at 1 µM): 89%
% of control ([8]; at 5 µM): 82%
SMILES: C=CC(=O)Nc1cccc(C(=O)Nc2ccc(Nc3cc(-c4[nH]c(SC)nc4C)ccn3)cc2)c1

SMILES: N#Cc1cccc(-c2c[nH]c3ncnc(N4CCOCC4)c23)c1
% of control [9]: 75%

SMILES: CNC(=O)Nc1ccc(-c2nc(N3CC4CCC(C3)O4)c3cnn(C4CCC5(CC4)OCCO5)c3n2)cc1
% of control [10]: 100%
